ChEMBL document CHEMBL5154826, “Discovery of the Clinical Candidate MAK683: An EED-Directed, Allosteric, and Selective PRC2 Inhibitor for the Treatment of Advanced Malignancies” (J Med Chem, 2022)
≈ marks a conversion by molar mass, not a printed value.

Experiments:
[1] = cells; details: Homo sapiens, G-401, 48 h
Description: Inhibition of PRC2 in human G-401 cells assessed as H3K27 methylation status incubated for 48 hrs by ELISA method

[2] = Permeability across apical to basolateral side in human Caco-2 cells at 10 uM incubated for 2 hrs by LC/MS/MS analysis; assay type: ADME, cell-based; details: Caco-2, read-out: permeability
[3] = Toxicity in Wistar Hannover rat assessed as degeneration of cortical adrenal gland at 30 to 400 mg/kg/day, po for 15 days by Hematoxylin and eosin staining based microscopic analysis; assay type: organism-based; details: in vivo, 360 h, DDE = dose-dependent effect, dose 30-400 mg/kg/day, time 15 day
[4] = High throughput solubility of the compound at pH 6.8 after 16 to 24 hrs by MS/MS analysis; assay type: physicochemical; details: buffer, time 16-24 hrs
[5] = Drug metabolism in bile duct cannulated Wistar Han rat assessed as unmodified compound recovery in urine at 3 mg/kg, iv after 8 hrs by LC-MS/MS analysis; assay type: ADME, organism-based; details: read-out: Drug metabolism
[6] = Dose normalized AUC in Sprague-Dawley rat at 2 mg/kg, po; assay type: ADME, organism-based; details: in vivo
[7] = Toxicity in Wistar Han rat assessed as histological changes in kidney at 30 to 400 mg/kg/day, po for 15 days by Hematoxylin and eosin staining based microscopic analysis; assay type: organism-based; details: in vivo, 360 h, dose 30-400 mg/kg/day, time 15 day
[8] = Toxicity in Wistar Han rat assessed as histological changes in lung at 30 to 400 mg/kg/day,po for 15 days by Hematoxylin and eosin staining based microscopic analysis; assay type: organism-based; details: in vivo, 360 h, dose 30-400 mg/kg/day, time 15 day
[9] = Drug metabolism in human liver hepatocytes assessed as CYP3A4 M3 metabolite formation at 1 uM preincuabted for 5 mins followed by NADPH addition and measured after 20 mins by LC-MS/MS analysis; assay type: ADME, cell-based, Hepatocyte
[10] = Drug metabolism in rat liver microsomes assessed as CYP3A4 mediated M3 metabolite formation at 1 uM preincuabted for 5 mins followed by NADPH addition and measured after 20 mins by LC-MS/MS analysis; assay type: ADME, Microsome; details: 25 min
[11] = target: Cytochrome P450 3A4 (Homo sapiens, UniProt P08684); test: Inhibition of CYP3A4 in human liver microsomes using midazolam as substrate incubated for 10 mins in presence of NADPH by LC-MS/MS analysis; assay type: ADME, Microsome
[12] = target: Cytochrome P450 2D6 (Homo sapiens, UniProt P10635); test: Inhibition of CYP2D6 in human liver microsomes using bufuralol as substrate incubated for 10 mins in presence of NADPH by LC-MS/MS analysis; assay type: ADME, Microsome
[13] = Inhibition of PRC2 (unknown origin) assessed as reduction in H3K27 trimethylation using H3K27Me0 peptide (21 to 44 residues) as substrate by measuring SAH formation by LC-MS analysis; parameters: species or system Homo sapiens
[14] = target: 3',5'-cyclic-AMP phosphodiesterase 4D (Homo sapiens, UniProt Q08499); test: Inhibition of human Phosphodiesterase 4D
[15] = Oral bioavailability in Sprague-Dawley rat at 2 mg/kg; assay type: ADME, organism-based; details: in vivo
[16] = Toxicity in Wistar Han rat assessed as histological changes in liver at 30 to 400 mg/kg/day, po for 15 days by Hematoxylin and eosin staining based microscopic analysis; assay type: organism-based; details: in vivo, 360 h, dose 30-400 mg/kg/day, time 15 day
[17] = target: T1, Alpha-2C adrenergic receptor (Homo sapiens, UniProt P18825); test: Inhibition of alpha2c adrenergic receptor (unknown origin)
T1 sequence (P18825 whole entry): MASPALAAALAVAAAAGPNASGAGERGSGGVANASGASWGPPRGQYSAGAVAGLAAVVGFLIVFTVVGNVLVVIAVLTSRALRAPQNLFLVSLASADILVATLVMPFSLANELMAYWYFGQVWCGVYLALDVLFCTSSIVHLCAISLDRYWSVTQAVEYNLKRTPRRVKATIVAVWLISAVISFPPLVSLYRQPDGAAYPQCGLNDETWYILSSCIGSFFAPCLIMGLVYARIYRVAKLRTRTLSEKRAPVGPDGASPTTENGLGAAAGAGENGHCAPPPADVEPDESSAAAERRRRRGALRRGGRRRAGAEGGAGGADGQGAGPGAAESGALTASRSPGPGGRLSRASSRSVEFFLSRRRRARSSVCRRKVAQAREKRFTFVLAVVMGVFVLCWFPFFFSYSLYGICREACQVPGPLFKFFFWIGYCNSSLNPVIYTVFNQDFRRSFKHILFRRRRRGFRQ

[18] = Drug metabolism in bile duct cannulated Wistar Han rat assessed as unmodified compound recovery in bile at 3 mg/kg, iv after 8 hrs by LC-MS/MS analysis; assay type: ADME, organism-based; details: read-out: Drug metabolism
[19] = target: T2, Alpha-2A adrenergic receptor (Homo sapiens, UniProt P08913); test: Antagonist activity against alpha2a adrenergic receptor (unknown origin); assay type: functional
T2 sequence (P08913 whole entry): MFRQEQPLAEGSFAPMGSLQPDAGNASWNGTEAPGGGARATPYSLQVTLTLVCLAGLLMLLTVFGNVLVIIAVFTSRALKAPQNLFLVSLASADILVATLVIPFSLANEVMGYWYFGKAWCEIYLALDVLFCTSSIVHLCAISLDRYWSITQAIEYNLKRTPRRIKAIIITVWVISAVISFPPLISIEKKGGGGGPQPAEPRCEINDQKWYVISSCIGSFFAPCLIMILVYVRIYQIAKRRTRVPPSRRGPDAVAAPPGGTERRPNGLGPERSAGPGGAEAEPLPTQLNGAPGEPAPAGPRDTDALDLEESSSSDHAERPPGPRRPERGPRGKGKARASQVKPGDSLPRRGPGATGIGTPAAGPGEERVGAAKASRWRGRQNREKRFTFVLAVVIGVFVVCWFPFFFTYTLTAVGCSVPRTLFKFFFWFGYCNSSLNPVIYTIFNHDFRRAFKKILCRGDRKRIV

[20] = Drug metabolism in human liver microsomes assessed as CYP3A4 mediated M3 metabolite formation at 1 uM preincuabted for 5 mins followed by NADPH addition and measured after 20 mins by LC-MS/MS analysis; assay type: ADME, Microsome; details: 25 min
[21] = tested on: KARPAS-422; test: Antiproliferative activity against human KARPAS-422 cells expressing EZH2 mutant assessed as inhibition of cell growth after 14 days by beckman coulter counting method; assay type: functional; details: Homo sapiens, KARPAS-422, 336 h; time 14 day
[22] = target: Cytochrome P450 2C9 (Homo sapiens, UniProt P11712); test: Inhibition of CYP2C9 in human liver microsomes using diclofenac as substrate incubated for 10 mins in presence of NADPH by LC-MS/MS analysis; assay type: ADME, Microsome
[23] = Efflux ratio of apparent permeability across basolateral to apical side over apical to basolateral side in human Caco-2 cells at 10 uM incubated for 2 hrs by LC/MS/MS analysis; assay type: ADME, cell-based
[24] = Terminal half life in Sprague-Dawley rat at 2 mg/kg, po; assay type: ADME, organism-based; details: in vivo, read-out: beta t1/2 (converted)
[25] = Drug metabolism in rat liver hepatocytes assessed as CYP3A4 M3 metabolite formation at 1 uM preincuabted for 5 mins followed by NADPH addition and measured after 20 mins by LC-MS/MS analysis; assay type: ADME, cell-based, Hepatocyte
[26] = Toxicity in Wistar Hannover rat assessed as infiltration of immune cells at 30 to 400 mg/kg/day, po for 15 days by Hematoxylin and eosin staining based microscopic analysis; assay type: organism-based; details: in vivo, 360 h, DDE = dose-dependent effect, dose 30-400 mg/kg/day, time 15 day
[27] = Lipophilicity, logD of the compound at pH 7.4 by LC with tandem MS analysis; assay type: physicochemical; details: buffer, read-out: logD

Sequence of 3',5'-cyclic-AMP phosphodiesterase 4D (Q08499 whole entry): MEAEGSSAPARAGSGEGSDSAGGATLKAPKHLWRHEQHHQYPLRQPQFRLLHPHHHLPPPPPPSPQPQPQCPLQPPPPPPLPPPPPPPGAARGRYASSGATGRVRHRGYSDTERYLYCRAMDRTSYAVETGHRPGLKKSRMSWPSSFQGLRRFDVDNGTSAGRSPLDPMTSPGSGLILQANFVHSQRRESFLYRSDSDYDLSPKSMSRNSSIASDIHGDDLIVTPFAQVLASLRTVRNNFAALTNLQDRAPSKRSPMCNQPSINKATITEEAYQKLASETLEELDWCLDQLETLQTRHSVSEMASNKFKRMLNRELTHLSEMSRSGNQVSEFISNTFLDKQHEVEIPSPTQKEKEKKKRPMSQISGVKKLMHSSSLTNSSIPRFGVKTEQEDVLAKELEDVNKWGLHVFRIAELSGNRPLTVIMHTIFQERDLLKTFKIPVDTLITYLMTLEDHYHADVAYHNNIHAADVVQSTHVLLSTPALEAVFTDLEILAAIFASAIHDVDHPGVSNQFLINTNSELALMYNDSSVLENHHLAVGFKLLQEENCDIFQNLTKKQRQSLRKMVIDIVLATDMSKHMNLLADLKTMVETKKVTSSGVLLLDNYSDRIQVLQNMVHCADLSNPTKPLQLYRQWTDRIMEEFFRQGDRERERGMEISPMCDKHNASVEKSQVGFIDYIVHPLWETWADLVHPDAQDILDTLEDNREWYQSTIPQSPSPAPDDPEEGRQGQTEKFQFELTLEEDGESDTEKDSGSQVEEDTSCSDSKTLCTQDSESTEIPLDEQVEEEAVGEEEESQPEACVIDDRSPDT
Sequence of Cytochrome P450 2D6 (P10635 whole entry, the tested form may be a part): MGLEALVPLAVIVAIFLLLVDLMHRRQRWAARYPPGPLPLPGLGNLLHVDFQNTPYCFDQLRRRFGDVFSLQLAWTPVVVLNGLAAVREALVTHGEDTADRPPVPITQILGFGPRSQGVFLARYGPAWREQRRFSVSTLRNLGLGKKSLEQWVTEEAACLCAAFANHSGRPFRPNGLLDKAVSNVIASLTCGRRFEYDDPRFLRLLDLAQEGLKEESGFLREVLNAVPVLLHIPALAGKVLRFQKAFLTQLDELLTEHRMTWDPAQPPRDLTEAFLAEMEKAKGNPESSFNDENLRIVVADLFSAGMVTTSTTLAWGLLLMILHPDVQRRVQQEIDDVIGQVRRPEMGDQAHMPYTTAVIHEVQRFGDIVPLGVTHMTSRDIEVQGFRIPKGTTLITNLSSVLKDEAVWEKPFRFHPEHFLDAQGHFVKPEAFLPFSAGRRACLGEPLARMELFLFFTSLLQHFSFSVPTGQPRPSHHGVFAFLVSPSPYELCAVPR
Sequence of Cytochrome P450 3A4 (P08684 whole entry): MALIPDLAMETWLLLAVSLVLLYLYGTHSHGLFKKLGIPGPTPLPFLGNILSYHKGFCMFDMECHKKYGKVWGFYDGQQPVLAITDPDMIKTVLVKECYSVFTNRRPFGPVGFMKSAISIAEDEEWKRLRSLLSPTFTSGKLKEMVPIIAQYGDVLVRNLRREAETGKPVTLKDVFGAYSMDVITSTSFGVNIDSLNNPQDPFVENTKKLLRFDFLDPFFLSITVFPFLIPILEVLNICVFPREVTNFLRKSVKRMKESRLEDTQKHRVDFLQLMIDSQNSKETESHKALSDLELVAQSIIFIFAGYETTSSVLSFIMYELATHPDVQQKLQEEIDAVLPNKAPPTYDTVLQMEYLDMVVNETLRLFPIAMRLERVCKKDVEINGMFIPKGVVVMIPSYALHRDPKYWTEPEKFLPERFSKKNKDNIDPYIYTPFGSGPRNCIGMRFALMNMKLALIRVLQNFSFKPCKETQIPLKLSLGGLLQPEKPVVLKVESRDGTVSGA
Sequence of Cytochrome P450 2C9 (P11712 whole entry): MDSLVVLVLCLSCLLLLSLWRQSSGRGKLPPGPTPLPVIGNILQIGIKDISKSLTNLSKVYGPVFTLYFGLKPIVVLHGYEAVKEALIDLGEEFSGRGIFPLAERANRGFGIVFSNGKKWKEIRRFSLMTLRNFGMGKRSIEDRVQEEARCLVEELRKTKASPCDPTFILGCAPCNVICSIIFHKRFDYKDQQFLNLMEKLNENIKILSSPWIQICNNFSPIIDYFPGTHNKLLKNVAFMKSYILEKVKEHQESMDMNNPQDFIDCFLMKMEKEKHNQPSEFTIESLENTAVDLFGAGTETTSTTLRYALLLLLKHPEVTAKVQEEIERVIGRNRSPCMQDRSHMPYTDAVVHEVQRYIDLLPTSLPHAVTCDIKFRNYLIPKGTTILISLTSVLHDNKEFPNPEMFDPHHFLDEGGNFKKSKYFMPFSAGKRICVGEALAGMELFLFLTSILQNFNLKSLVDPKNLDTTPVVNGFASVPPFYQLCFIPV

CS(=O)(=O)c1ccc(-c2cnc(NCc3ccco3)n3cnnc23)cc1
IC50 [1]: 0.22 µM
Papp A→B at 2 h, 10 µM [2]: 3 ×10⁻⁶ cm/s
Activity [3]: Dde
solubility [4]: 12 µM (≈ 4.43 µg/mL)
dose excreted at 8 h [5]: 0.9%
AUC/dose [6]: 1948 nM·h
Activity [7]: Non-Toxic
Activity [8]: Non-Toxic
Drug metabolism [9]: Metabolite_Detected
Drug metabolism [10]: Metabolite_Detected
IC50 [11]: > 50 µM
IC50 [12]: > 50 µM
IC50 [13]: 0.022 µM
IC50 [14]: 20 µM
bioavailability [15]: 62%
Activity [16]: Non-Toxic
IC50 [17]: 14 µM
dose excreted at 8 h [18]: 0.5%
IC50 [19]: 15 µM
Drug metabolism [20]: Metabolite_Detected
GI50 [21]: 0.08 µM
IC50 [22]: > 50 µM
efflux ratio at 2 h, 10 µM [23]: 7.6
half-life [24]: 1.6 h
Drug metabolism [25]: Metabolite_Detected
Activity [26]: Dde
logD [27]: 1.8
